Values quoted from earlier work, collected in patent publication US10300101B2, “Methods and compositions for enhancing or maintaining fertility” (Quality IP Holdings, LLC, priority 2012, dated 2019).

Key:
[1] = tested on: hGH levels
[2] = tested on: hGH levels; conditions: subcutaneous injection of 0.06 IU in hGH deficient subjects

Row | Compound | elevation of serum hGH levels ([1]; 30 g intravenous, in males) | increase in hGH levels ([1]; intravenous infusion of 183 mg/kg body weight in females) | mean levels of hGH reached [2]
1 | N=C(N)NCCC[C@H](N)C(=O)O [arginine] | 8.6 fold | > 20 fold | 
2 | hGH: human growth hormone given by subcutaneous injection to hGH deficient subjects |  |  | 0.4 ng/mL
